Reference: PubChem BioAssay (NCI)
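Grown in 96-well plates, cells were treated for 48 hours with each compound at five concentrations. Insufficient inhibition: endpoint recorded as highest concentration tested. TGI is the concentration that stops growth completely.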

Experiments:
Assay in all cases: DTP human tumour cell line panel, 48 h
ACHN renal = tested on: ACHN renal
BT-549 breast = tested on: BT-549 breast
DU-145 prostate = tested on: DU-145 prostate
M14 melanoma = tested on: M14 melanoma
MDA-MB-231 breast = tested on: MDA-MB-231 breast
MDA-MB-435 = tested on: MDA-MB-435
PC-3 prostate = tested on: PC-3 prostate
T-47D breast = tested on: T-47D breast

Measured: TGI

c1ccc2c(c1)c1ccccc1n2Cn1c2ccccc2c2ccccc21
> 100 µM: all assays above
